# Source: patent US20260102457A1, “ANTICOAGULANT-PEPTIDE NANOGRANULES FOR THROMBOSIS-ACTUATED ANTICOAGULATION” (The Penn State Research Foundation, priority 2022, published 2026)
# Where no end group is shown, it is not given here.
# Experiments:
# [1] = Tissue biodistribution of heparin (liver, kidney, spleen fluorescence); format: in vivo, C57BL/6J mice; details: kidneys
# Description: Murine studies were performed under IACUC protocol 202102036. HMG particles were prepared using rhodamine-heparin doped 20 vol % into unlabeled heparin before electrospray synthesis. Dialyzed HMG particles were concentrated by Centri Vap DNA Concentrator to achieve 0.5 mg/mL equivalent heparin. Sterile 10×PBS was diluted ten-fold into samples before injection of a 200 μL volume into C57BL/6J mice. Two groups (n=4) received free heparin given via tail vein injection or injected subcutaneously in the neck scruff. A third group (n=4) received HMG sample as a subcutaneous depot in the neck scruff. All mice received a final heparin dose of 10 IU. At each time point, mice were sacrificed, and blood samples collected into citrate tubes via cardiac puncture. Coagulation time was determined on whole blood samples via INTEM analysis on a ROTEM delta coagulation analyzer (Werfen; Bedford, MA). Clotting times were chosen to evaluate the efficacy of each treatment's ability to inhibit thrombin-linked platelet activation and initial fibrin polymerization/recruitment. […] For a typical experiment, serum is isolated via centrifugation (1000 rcf, 10 minutes) and fluorescence measurements taken (λex=560 nm, λem=590 nm). […] 100 μL of the remaining supernatant was evaluated for heparin presence via fluorescence measurements (λex=560 nm, λem=590 nm) using a BioTek Cytation 3 Plate Reader.
# [2] = clinical background; cited from earlier work
# [3] = In vivo heparin serum/plasma concentration over time; set-up: species or system C57BL/6J mice; details: for time of highest heparin serum concentration: first sampling timepoint; for time to complete clearance from serum: post administration; for heparin serum half-life (t1/2): single dose 10 IU heparin
# Description: (§1) Murine studies were performed under IACUC protocol 202102036. HMG particles were prepared using rhodamine-heparin doped 20 vol % into unlabeled heparin before electrospray synthesis. Dialyzed HMG particles were concentrated by Centri Vap DNA Concentrator to achieve 0.5 mg/mL equivalent heparin. Sterile 10×PBS was diluted ten-fold into samples before injection of a 200 μL volume into C57BL/6J mice. Two groups (n=4) received free heparin given via tail vein injection or injected subcutaneously in the neck scruff. A third group (n=4) received HMG sample as a subcutaneous depot in the neck scruff. All mice received a final heparin dose of 10 IU. At each time point, mice were sacrificed, and blood samples collected into citrate tubes via cardiac puncture. Coagulation time was determined on whole blood samples via INTEM analysis on a ROTEM delta coagulation analyzer (Werfen; Bedford, MA). Clotting times were chosen to evaluate the efficacy of each treatment's ability to inhibit thrombin-linked platelet activation and initial fibrin polymerization/recruitment. INTEM coagulation analysis was selected based on its established sensitivity for the presence of heparin. For a typical experiment, serum is isolated via centrifugation (1000 rcf, 10 minutes) and fluorescence measurements taken (λex=560 nm, λem=590 nm). Kidney, liver, and spleen tissues were also collected and homogenized before centrifugation at 10,000 rcf for 20 minutes to remove bulk fibrous structures. 100 μL of the remaining supernatant was evaluated for heparin presence via fluorescence measurements (λex=560 nm, λem=590 nm) using a BioTek Cytation 3 Plate Reader.
# whole blood coagulation = experiment: In vivo anticoagulation: blood clotting time (INTEM, ROTEM); set-up: species or system C57BL/6J mice
# Description: as §1
# [4] = test system: bovine platelet rich plasma (PRP); details: equivalent heparin concentration of 2 μg/mL, FIG. 3b
# Description: Here, bovine PRP was acquired from the top clear layer after centrifuging citrated bovine whole blood at 600 rcf for 30 minutes (4° C.) with minimum acceleration/break ramps. […] Clot formation was initiated by combining 450 μL bovine PRP, 50 μL HMG treatment solution, and 50 μL 0.1M CaCl2) in a 24-well plate. DI water was included as a negative control. Samples were mixed on an oscillating rocker plate and clotting time determined as the time required for observable aggregate formation upon recalcification.
# activated platelets = experiment: Platelet localization and binding (confocal microscopy, flow cytometry); format: cell-based, bovine; details: 15 minutes incubation
# Description: Bovine platelets were acquired from bovine PRP by centrifugation (800 rcf, 15 minutes), labelled with DiI (5 μg/mL), washed, and resuspended in PBS. At the time of treatment, platelets were further centrifuged (800 rcf, 15 minutes) to replace PBS supernatant with treatment solutions. Treatments of AMCA/FITC HMG, FITC-MAD1, or AMCA-heparin were prepared in PBS at equivalent concentrations, incubated with platelet samples for 15 minutes and then transferred to 4-well chambered slide (500 μL) before imaging using an Olympus FluoView 1000 confocal microscope (Tokyo, Japan).
# MAD1-platelet binding was analyzed via flow cytometry by resuspending platelets in PBS containing 1 mg/mL FITC-MAD1. Blank PBS was used as an untreated control. After a 15-minute incubation, treated platelets were centrifuged (800 rcf, 15 minutes) and resuspended in PBS before analysis using a Guava Flow Cytometer (Millipore Sigma; Burlington, MA). Data was analyzed by FlowJo software.
time of highest heparin serum concentration ([3]; intravenous),time to complete clearance from serum ([3]; intravenous),heparin serum half-life (t1/2) ([3]; intravenous),time of transient spike in heparin serum concentration after dosing ([3]; subcutaneous),time of highest heparin serum concentration ([3]; subcutaneous),time to complete clearance from serum ([3]; subcutaneous),heparin serum half-life (t1/2) ([3]; subcutaneous),Substance,tissue biodistribution / clearance route of heparin ([1]; intravenous),tissue biodistribution / clearance route of heparin ([1]; subcutaneous),plasma half-life (t1/2) [2],"blood clotting time (whole blood coagulation; intravenous, 0.5 hour time point)","time to return to basal clotting activity (whole blood coagulation; intravenous, post administration, basal 3.5 minutes)","change in clotting behavior (whole blood coagulation; subcutaneous, 0.5-24 hours)",clotting time of blood treated with peptide alone [4],binding to activated platelets (activated platelets)
30 min,~6 h,1.3 h,4 to 6 h,30 min,~6 h,1.4 h,heparin,"initially excreted through the renal system, with additional hepatic clearance observed at ˜6 hours",early liver uptake that later shifted to renal clearance,~1 h,35.5 min,approximately 2 hours,negligible changes in clotting behavior for all time points except 6 hours,,
,,,,,,,"KRWHWWRRHWVVW-NH2 [MAD1, de novo designed tryptophan-rich antitubercular peptide with C-terminal amido group]",,,,,,,significant increase in clotting time,high avidity
